Like-named read-outs stand apart in the source and are kept apart here. One block for each molecule: values may come before it.
Experiments:
hepatocytes [1] = assay type: cell-based, rat
From the text: The sandwich culture is a long-term culture technique that results in stable and differentiated hepatocytes. We evaluated albumin synthesis, urea production, and cytochrome P450 (CYP) activity of frozen-thawed hepatocytes as markers of synthetic, metabolic, and detoxification abilities of hepatocytes. Albumin production of 3OMG-loaded and cryopreserved hepatocytes stabilized following 7 days in culture (FIG. 11A). Daily average of albumin production (day 7-13) from 3OMG-loaded hepatocytes was approximately 60% of non-frozen control (1.29±0.19 μg and 2.14±0.26 μg, respectively) with statistically significant difference (p=0.014). […] The CYP activity was measured on day 3 and 7 after thawing.

[2] = tested on: lymphocytes, fibroblasts and hepatocytes; assay type: cell-based, murine; rat
Description: The conventional permeable cryoprotectants such as DMSO and glycerol benefit cells for preservation, but they are known to be toxic to the cells at the same time. […] The toxicity of various glucose compounds, D-glucose and DMSO was examined after loading. Cells were incubated with glucose-free DMEM supplemented with 0.2 M 3OMG, with 0.2 M 2DG or 1.4 M DMSO for 60 min at 37° C. After loading, calcein and ethidium homodimer were added to cell suspensions to assess viability. Cells were run through Beckton-Dickinson FACSCalibur flowcytometer to take emission reading at 530 nm and 630 nm of 5000 particles. High green and low red fluorescence (calcein positive) were scored as live, whereas high red and low green (ethidium positive) were scored dead.

hepatocytes [3] = assay type: cell-based; conditions: rat, 60 min, 200 mM
Description: HTS without sugar supplement was used for control samples. […] Following storage, samples were rapidly thawed in 37° C. H2O for 2 min with gentle agitation.

[4] = tested on: lymphocytes, fibroblasts and hepatocytes; assay: MTT assay of metabolic activity after glucose loading (Example 1); assay type: cell-based, murine; rat; conditions: 1 hr at 37° C.
Description: However, it was considered to be possible that high accumulation of glucose compounds change metabolic activity of the cells. Therefore, metabolic activity after sugar loading was measured with the MTT assay. MTT assay is a colorimetric assay based on the activity of mitochondrial dehydrogenase activity. […] Cells were seeded on 96-well culture plates with 100 μL defined medium supplemented with various glucose compounds according to the experimental design for 1 hr at 37° C. At the end of the treatment period, 10 μL of MT solution (5 mg/mL) were added and incubated for 2 hrs at 37° C. At this time, 100 μL of detergent solution were added to the wells and after 24 hrs of incubation at 25° C., and the absorption value at 570 nm was measured in a microtiter reader.

[5] = tested on: murine B lymphocytes, murine fibroblasts, and rat primary hepatocytes; assay: Cryopreservation with non-metabolizable glucose compounds, post-thaw trypan blue viability (Example 1); assay type: cell-based; conditions: 0.2 M loading 60 min
Description: At first, these compounds were tested on cryopreservation, which is most common protocol for preservation of biomaterials. Glucose compounds are thought to prevent damaging effects of protein and lipid-membranes during storage. In addition, glucose compounds have a high glass transition temperature and cause the formation of stable glasses during storage. Cells were incubated with glucose-free DMEM or glucose-free DMEM with 0.2 M 2DG, or 0.2 M 3OMG for 60 min at 37° C. […] Samples were stored for up to 14 days. Following storage, samples were rapidly thawed in 37° C. H2O for 80 sec with gentle agitation. […] Samples were then centrifuged, supernatant decanted, and cells were resuspended in culture medium.

Structure (SMILES): OC[C@H]1O[C@@](CO)(O[C@H]2O[C@H](CO)[C@@H](O)[C@H](O)[C@H]2O)[C@@H](O)[C@@H]1O [sucrose]
hepatospecific functions (albumin, urea, CYP) in long-term culture after cryopreservation (hepatocytes [1]; collagen sandwich culture, 14 days): completely lost these functions in 5 days

Structure (SMILES): C[S+](C)[O-] [DMSO, dimethylsulfoxide]
toxicity to the cells (percentage of dead cells after incubation) [2]: significant toxicity

Structure (SMILES): O=C[C@H](O)[C@@H](O)[C@H](O)[C@H](O)CO [D-glucose]
post-thaw viability, percent of non-frozen samples (hepatocytes [3]): < 10%
hepatospecific functions (albumin, urea, CYP) in long-term culture after cryopreservation (hepatocytes [1]): completely lost these functions in 5 days

metabolic activity (MTT) after loading, hepatocytes ([4]; primary isolated hepatocytes): not down-regulated
Structure (SMILES): OC[C@H]1OC(O)C[C@@H](O)[C@@H]1O (mixture of isomers) [2DG, 2-deoxy-D-glucose]
metabolic activity (MTT) after loading, lymphocytes and fibroblasts ([4]; lymphocytes and fibroblasts): significant loss of metabolic activity
viability after cryopreservation compared to non-glucose control [5]: significantly high viability
post-thaw viability, percent of non-frozen samples (hepatocytes [3]): 15%
